Laboratory results taken from patent publication US10947213B1 (Merck Patent GmbH, priority 2015, dated 2021).

These compounds were tested against T1, TLR7/NFKb HEK cells (Homo sapiens, UniProt Q9NYK1) (assay: HEK Cell Assay (TLR7/NFKb reporter, Steady-Glo luciferase readout)). Details: 30 min compound preincubation, then R*48 agonist for 5 hours, read-out: Potency.
T1 construct: expressed in transfected cells; host or cells: HEK cells (TLR7/NFKb reporter line)
T1 sequence (Q9NYK1 27-1049): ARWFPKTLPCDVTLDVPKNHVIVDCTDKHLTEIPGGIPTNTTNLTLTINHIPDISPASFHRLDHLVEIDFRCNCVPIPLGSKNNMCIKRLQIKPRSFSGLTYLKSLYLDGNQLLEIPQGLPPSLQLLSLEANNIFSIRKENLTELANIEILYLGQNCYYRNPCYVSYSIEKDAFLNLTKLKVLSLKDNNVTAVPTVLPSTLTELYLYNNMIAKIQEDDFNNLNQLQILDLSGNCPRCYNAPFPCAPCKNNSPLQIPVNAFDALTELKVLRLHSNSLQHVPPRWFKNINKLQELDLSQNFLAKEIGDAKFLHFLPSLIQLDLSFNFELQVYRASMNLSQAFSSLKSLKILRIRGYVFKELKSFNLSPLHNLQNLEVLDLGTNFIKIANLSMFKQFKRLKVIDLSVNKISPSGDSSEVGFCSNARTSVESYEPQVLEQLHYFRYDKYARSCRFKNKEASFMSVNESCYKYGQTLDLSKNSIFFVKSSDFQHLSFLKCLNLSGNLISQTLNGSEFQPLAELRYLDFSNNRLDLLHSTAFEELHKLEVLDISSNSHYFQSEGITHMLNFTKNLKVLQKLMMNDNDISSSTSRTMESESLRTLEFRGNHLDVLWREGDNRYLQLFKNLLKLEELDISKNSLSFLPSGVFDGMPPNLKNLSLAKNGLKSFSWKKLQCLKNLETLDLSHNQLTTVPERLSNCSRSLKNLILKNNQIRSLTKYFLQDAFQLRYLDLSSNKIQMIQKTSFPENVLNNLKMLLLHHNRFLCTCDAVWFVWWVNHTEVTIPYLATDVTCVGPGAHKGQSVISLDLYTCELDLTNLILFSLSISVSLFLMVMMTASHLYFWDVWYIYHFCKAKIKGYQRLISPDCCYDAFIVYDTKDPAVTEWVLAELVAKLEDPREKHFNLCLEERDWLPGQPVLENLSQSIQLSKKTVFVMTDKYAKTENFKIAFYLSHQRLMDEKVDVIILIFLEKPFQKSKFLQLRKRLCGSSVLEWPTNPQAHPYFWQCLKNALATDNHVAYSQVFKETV
Assay type: cell-based
Summary of the method: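 Steady-Glo luminescence after 5 h stimulation with R*48 agonist, following 30 min compound preincubation. Assay run in HEK cells carrying a TLR7/NFKb luciferase reporter, plated at 5000 cells/well and grown 24 h at 37° C (10% CO2) before treatment.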

| IC50 [nM] | Structure (SMILES) |
| --- | --- |
| < 1000 | C[C@H]1C[C@@H](NC(=O)C(C)(C)C2CCN(C)CC2)CN(c2ccc(C#N)c3nccnc23)C1 [Compound 349, N-[(3R,5S)-1-(8-cyanoquinoxalin-5-yl)-5-methylpiperidin-3-yl]-2-methyl-2-(1-methylpiperidin-4-yl)propanamide] |
| < 1000 | C[C@H]1C[C@@H](NC(=O)CN2CCC(F)(F)CC2)CN(c2ccc(C(F)(F)F)c3ncccc23)C1 [Compound 350, 2-(4,4-difluoropiperidin-1-yl)-N-[(3R,5S)-5-methyl-1-[8-(trifluoromethyl)quinolin-5-yl]piperidin-3-yl]acetamide] |
| < 1000 | C[C@H]1C[C@@H](NC(=O)C(C)(C)C2CCN(C)CC2)CN(c2ccc(C(F)(F)F)c3ncccc23)C1 [Compound 351, 2-methyl-N-[(3R,5S)-5-methyl-1-[8-(trifluoromethyl)quinolin-5-yl]piperidin-3-yl]-2-(1-methylpiperidin-4-yl)propanamide] |
| 1000 to 10000 | C[C@H]1C[C@@H](NC(=O)CN2CCC(F)(F)CC2)CN(c2ccc(C(F)(F)F)c3nccnc23)C1 [Compound 354, 2-(4,4-difluoropiperidin-1-yl)-N-[(3R,5S)-5-methyl-1-[8-(trifluoromethyl)quinoxalin-5-yl]piperidin-3-yl]acetamide] |
| < 1000 | C[C@H]1C[C@@H](NC(=O)C(C)(C)C2CCN(C)CC2)CN(c2ccc(C(F)(F)F)c3nccnc23)C1 [Compound 355, 2-methyl-N-[(3R,5S)-5-methyl-1-[8-(trifluoromethyl)quinoxalin-5-yl]piperidin-3-yl]-2-(1-methylpiperidin-4-yl)propanamide] |
| < 1000 | C[C@H]1C[C@@H](NC(=O)CN2CC(N)C2)CN(c2ccc(C#N)c3nccnc23)C1 [Compound 356, 2-(3-aminoazetidin-1-yl)-N-[(3R,5S)-1-(8-cyanoquinoxalin-5-yl)-5-methylpiperidin-3-yl]acetamide] |
| < 1000 | C[C@H]1C[C@@H](NC(=O)CC2CN(C)C2)CN(c2ccc(C#N)c3nccnc23)C1 [Compound 359, N-[(3R,5S)-1-(8-cyanoquinoxalin-5-yl)-5-methylpiperidin-3-yl]-2-(1-methylazetidin-3-yl)acetamide] |
| < 1000 | C[C@H]1C[C@@H](NC(=O)CC2CN(C)C2)CN(c2ccc(C(F)(F)F)c3ncccc23)C1 [Compound 360, N-[(3R,5S)-5-methyl-1-[8-(trifluoromethyl)quinolin-5-yl]piperidin-3-yl]-2-(1-methylazetidin-3-yl)acetamide] |
| < 1000 | C[C@H]1C[C@@H](NC(=O)CN2CC(N)C2)CN(c2ccc(C(F)(F)F)c3nccnc23)C1 [Compound 361, 2-(3-aminoazetidin-1-yl)-N-((3R,5S)-5-methyl-1-(8-(trifluoromethyl)quinoxalin-5-yl)piperidin-3-yl)acetamide] |
| < 1000 | C[C@H]1C[C@@H](NC(=O)CN2CCCN(C)CC2)CN(c2ccc(C(F)(F)F)c3nccnc23)C1 [Compound 362, 2-(4-methyl-1,4-diazepan-1-yl)-N-[(3R,5S)-5-methyl-1-[8-(trifluoromethyl)quinoxalin-5-yl]piperidin-3-yl]acetamide] |
| < 1000 | C[C@H]1C[C@@H](NC(=O)CC2CN(C)C2)CN(c2ccc(C(F)(F)F)c3nccnc23)C1 [Compound 363, N-[(3R,5S)-5-methyl-1-[8-(trifluoromethyl)quinoxalin-5-yl]piperidin-3-yl]-2-(1-methylazetidin-3-yl)acetamide] |
| < 1000 | C[C@H]1C[C@@H](NC(=O)CC2CN(C)C2)CN(c2ccc(C(F)F)c3ncccc23)C1 [Compound 364, N-[(3R,5S)-1-[8-(difluoromethyl)quinolin-5-yl]-5-methylpiperidin-3-yl]-2-(1-methylazetidin-3-yl)acetamide] |
| 1000 to 10000 | C[C@H]1C[C@@H](NC(=O)CN2CC(N)C2)CN(c2ccc(C(F)F)c3nccnc23)C1 [Compound 365, 2-(3-aminoazetidin-1-yl)-N-[(3R,5S)-1-[8-(difluoromethyl)quinoxalin-5-yl]-5-methylpiperidin-3-yl]acetamide] |
| 1000 to 10000 | O=C(NCCN1CCCCC1)C1CCN(c2ccnc3nccnc23)CC1 [Compound 373, 1-Pyrido[2,3-b]pyrazin-8-yl-piperidine-4-carboxylic acid (2-piperidin-1-yl-ethyl)-amide] |
| 1000 to 10000 | CCN(CC)CCNCC1CCN(c2cc(C)nc3ccc(F)cc23)CC1 [Compound 374, N,N-diethyl-N′-[1-(6-fluoro-2-methyl-quinolin-4-yl)-piperidin-4-ylmethyl]-ethane-1,2-diamine] |
| 1000 to 10000 | CCN(CC)CCNCC1CCN(c2ccnc3ccc(F)cc23)CC1 [Compound 375, N,N-Diethyl-N′-[1-(6-fluoro-quinolin-4-yl)-piperidin-4-ylmethyl]-ethane-1,2-diamine] |

| IC50 [nM] | Structure (SMILES) |
| --- | --- |
| 1000 to 10000 | CCN(CC)CCNCC1CCN(c2ccnc3cc(C(F)(F)F)ccc23)CC1 [Compound 376, N,N-Diethyl-N′-[1-(7-trifluoromethyl-quinolin-4-yl)-piperidin-4-ylmethyl]-ethane-1,2-diamine] |
| 1000 to 10000 | CCN(CC)CCNCC1CCN(c2ccnc3ccc(C(F)(F)F)cc23)CC1 [Compound 377, N,N-Diethyl-N′-[1-(6-trifluoromethyl-quinolin-4-yl)-piperidin-4-ylmethyl]-ethane-1,2-diamine] |
| 1000 to 10000 | Fc1ccc2nccc(N3CCC(CNCCN4CCCCC4)CC3)c2c1 [Compound 378, [1-(6-Fluoro-quinolin-4-yl)-piperidin-4-ylmethyl]-(2-piperidin-1-yl-ethyl)-amine] |
| 1000 to 10000 | CCN(CC)CCNC(=O)C1CCN(c2ccnc3nccnc23)CC1 [Compound 379] |
| 1000 to 10000 | Cc1cc(N2CCC(CNCCN3CCCCC3)CC2)c2cc(F)ccc2n1 [Compound 381, [1-(6-Fluoro-2-methyl-quinolin-4-yl)-piperidin-4-ylmethyl]-(2-piperidin-1-yl-ethyl)-amine] |
| 1000 to 10000 | CCN(CC)CCNCC1CCN(c2ccnc3ccc(OC)cc23)CC1 [Compound 382, N,N-Diethyl-N′-[1-(6-methoxy-quinolin-4-yl)-piperidin-4-ylmethyl]-ethane-1,2-diamine] |
| 1000 to 10000 | CCN(CC)CCNCC1CCN(c2ccnc3cc(F)ccc23)CC1 [Compound 383, N,N-Diethyl-N′-[1-(7-fluoro-quinolin-4-yl)-piperidin-4-ylmethyl]-ethane-1,2-diamine] |
| 1000 to 10000 | CCN(CC)CCNCC1CCN(c2ccnc3ccc(C)cc23)CC1 [Compound 384, N,N-Diethyl-N′-[1-(6-methyl-quinolin-4-yl)-piperidin-4-ylmethyl]-ethane-1,2-diamine] |
| 1000 to 10000 | CCN(CC)CCNCC1CCN(c2c(C)c(C)nc3ccc(F)cc23)CC1 [Compound 385, N,N-Diethyl-N′-[1-(6-fluoro-2,3-dimethyl-quinolin-4-yl)-piperidin-4-ylmethyl]-ethane-1,2-diamine] |
| 1000 to 10000 | CCN(CC)CCNCC1CCN(c2cc(C)nc3cc(F)ccc23)CC1 [Compound 386, N,N-Diethyl-N′-[1-(7-fluoro-2-methyl-quinolin-4-yl)-piperidin-4-ylmethyl]-ethane-1,2-diamine] |
| 1000 to 10000 | FC(F)(F)c1ccc2nccc(N3CCC(CNCCN4CCCCC4)CC3)c2c1 [Compound 387, (2-Piperidin-1-yl-ethyl)-[1-(6-trifluoromethyl-quinolin-4-yl)-piperidin-4-ylmethyl]-amine] |
| 1000 to 10000 | O=C(CN1CCCCC1)NCC1CCN(c2ccnc3nccnc23)CC1 [Compound 388, 2-Piperidin-1-yl-N-(1-pyrido[2,3-b]pyrazin-8-yl-piperidin-4-ylmethyl)-acetamide] |
| 1000 to 10000 | CCN(CC)CCNCC1CCN(c2ccnc3cc(C)ccc23)CC1 [Compound 389, N,N-Diethyl-N′-[1-(7-methyl-quinolin-4-yl)-piperidin-4-ylmethyl]-ethane-1,2-diamine] |
| 1000 to 10000 | CCN(CC)CC(=O)NC1CCN(c2ccnc3nccnc23)CC1 [Compound 390, 2-Diethylamino-N-(1-pyrido[2,3-b]pyrazin-8-yl-piperidin-4-yl)-acetamide] |
| > 10000 | COc1ccc(C(=O)NCC2CCN(c3ccnc4nccnc34)CC2)cc1OC [Compound 391, 3,4-Dimethoxy-N-(1-pyrido[2,3-b]pyrazin-8-yl-piperidin-4-ylmethyl)-benzamide] |
| > 10000 | O=C(NCC1CCN(c2ccnc3nccnc23)CC1)c1ccccn1 [Compound 392, Pyridine-2-carboxylic acid (1-pyrido[2,3-b]pyrazin-8-yl-piperidin-4-ylmethyl)-amide] |
